Columns and labels:
AGEs formation = AGEs formation inhibition assay (BSA with fructose and glucose, fluorescence); format: biochemical; conditions: mean ± SD (n = 3); for IC50: isolated compounds, tested 10–500 µM
Description: In accordance with a reported protocol with slight modifications, a reaction mixture of bovine serum albumin (10 mg/mL, Sigma Aldrich) in 50 mM phosphate buffer (pH 7.4) with 0.02% sodium azide was added to 0.4M fructose and glucose. The reaction mixture (270 μL) was added to 30 μL of sequentially diluted compounds or the positive control, AMG. Each sample of extract, hexane, water fractions, EAF, NBF, and compounds 1–10 were dissolved in DMSO for the AGEs assay at five different final concentrations (10–500 µg/mL for extracts and fractions or 10–500 µM for isolated constituents). After 48 h of incubation at 60 °C, 200 μL of the reaction products was taken to 96-well plates and its fluorescence was measured using a spectrofluorometric detector (FlexStation 3, HTRF® Chemistry) at an excitation wavelength of 350 nm and an emission wavelength of 450 nm. DMSO was used as negative control instead of the sample. The IC50 values and 95% confidence intervals were obtained via regression analysis. The percentage of inhibition (%) was calculated by the following equation, where Ac stands for the fluorescence of the control and As stands for the fluorescence of the sample: (1) Inhibition(%)=Ac−As/Ac×100

[1] = target: T1, porcine pancreatic lipase (Sus scrofa, UniProt P00591); experiment: Lipase inhibition assay (p-NPB); format: biochemical; conditions: isolated compounds; tested 10–2000 µM; mean ± SD (n = 3)
T1 construct: purchased Sigma-Aldrich Co. Type II
T1 sequence (P00591 1-450): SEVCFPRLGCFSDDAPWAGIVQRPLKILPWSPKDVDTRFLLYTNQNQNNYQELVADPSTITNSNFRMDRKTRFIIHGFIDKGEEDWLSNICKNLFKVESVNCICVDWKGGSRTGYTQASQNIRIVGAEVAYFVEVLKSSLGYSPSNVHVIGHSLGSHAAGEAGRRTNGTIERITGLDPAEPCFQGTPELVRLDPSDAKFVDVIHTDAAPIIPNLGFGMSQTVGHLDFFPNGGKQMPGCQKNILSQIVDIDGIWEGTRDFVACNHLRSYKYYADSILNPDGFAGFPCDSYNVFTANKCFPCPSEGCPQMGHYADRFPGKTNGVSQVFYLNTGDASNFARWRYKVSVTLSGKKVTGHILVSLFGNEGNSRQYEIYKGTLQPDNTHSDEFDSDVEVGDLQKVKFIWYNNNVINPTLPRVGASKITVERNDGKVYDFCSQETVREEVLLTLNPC
Description: Lipase inhibition activity was evaluated according to a slightly modified method of de Camargo et al. [66]. The substrate used was p-nitrophenyl butyrate (p-NPB), which is converted to p-nitro-phenol in the presence of lipase, giving a yellow color that can be used to quantify the extent of the reaction. Type II porcine pancreatic lipase was used at a concentration of 5 mg/mL. The substrate (p-NPB) was prepared in DMSO to achieve a concentration of 5 mM. Tested samples, dissolved in 10% DMSO at five different final concentrations (0.05–5.0 mg/mL for extracts and fractions or 10–2000 µM for isolated constituents), were mixed with Tris–HCl buffer (pH 7.4), and enzyme solution, with a total reaction mixture volume of 840 μL. After incubation at 37 °C for 15 min, p-NPB was added, and the solution was further incubated at 37 °C for 25 min. Then, the mixture was cooled for 2 min, and 200 μL was transferred to a 96-well plate. Absorbance was measured using the SUNRISE microplate reader. Blanks, in which enzymes were replaced with Tris–HCl buffer, were prepared for background corrections. […] The inhibition rate of lipase activity was also calculated using Equation (1).

[2] = target: T2, rat lens aldose reductase (Rattus norvegicus, UniProt P07943); experiment: AR assay (rat lens homogenate, decrease in β-NADPH absorption); format: biochemical, Sprague-Dawley rats; conditions: mean ± SD (n = 3); for IC50: isolated compounds, tested 0.1–100 µM
T2 construct: The rat lenses were homogenized and centrifuged at 10,000 rpm (4 °C, 20 min) and the supernatant was used as an enzyme source; from tissue; host or cells: rat lens (Sprague-Dawley)
Description: Lenses (one lens per 0.5 mL sodium buffer) were removed from Sprague-Dawley rats (weight 250–280 g) and stored in a deep freezer at −80 °C until use. The rat lenses were homogenized and centrifuged at 10,000 rpm (4 °C, 20 min) and the supernatant was used as an enzyme source [65]. AR activity was spectrophotometrically calculated by measuring the decrease in β-NADPH absorption rate at 340 nm for a 4 min period at 25 °C in a 96-well plate using the same detector device used in the AGEs assay. The assay mixture (300 µL) contained 0.1 M potassium phosphate buffer (pH 7.0), 0.1 M sodium phosphate buffer (pH 6.2), 1.6 mM β-NADPH, and test samples with 0.025 M of DL-glyceraldehyde as substrate. […] IC50 values were determined using the least-squares regression line of log concentration plotted against residual activity. TMG, a typical AR inhibitor, was used as the positive control. A negative control was fulfilled by using DMSO instead of the sample.

[3] = target: α-glucosidase from Saccharomyces cerevisiae; experiment: α-Glucosidase inhibition assay (p-NPG); format: biochemical; conditions: isolated compounds; tested 1–1000 µM; mean ± SD (n = 3)
Description: This enzyme inhibition assay was carried out by using a 96-well microplate reader and a spectrophotometer. The reaction volume (60 μL) contained 100 mM phosphate buffer (pH 6.8), 2.5 mM p-nitrophenyl α-D-glucopyranoside (p-NPG), and sample dissolved in 10% DMSO at five different final concentrations (5–100 µg/mL for extracts and fractions or 1–1000 µM for isolated constituents). A chromogenic substance was used for quantification purposes. The mixture solution was added to each well, then, 20 μL of 10 mM phosphate buffer (pH 6.8) containing 0.2 U/mL α-glucosidase was added. The plate was incubated at 37 °C for 15 min, then, 80 μL of 0.2 mol/L sodium carbonate solution was added to stop the reaction. Absorbance was measured at 405 nm immediately after reaction cessation by using a SUNRISE microplate reader (Tecan Austria GmbH, Grodig, Austria). The negative control contained the same reaction mixture with phosphate buffer substituted for the sample solution. […] The inhibition rate of α-glucosidase activity was calculated using the same equation (1) used for inhibition of AGEs formation, but absorbance was measured instead of fluorescence.

[4] = ND: no detection within test concentration
[5] = 70% MeOH stem extracts of Smilacaceae plants

| IC50 [2, 4] | IC50 [3] | Aldose Reductase IC50 [2, 5] | Aldose Reductase IC50 ([2]; SCS extract and solvent fractions, tested 10–100 µg/mL, ND: no detection within test concentration) | SMILES | IC50 (AGEs formation) | IC50 [1] | AGEs IC50 (AGEs formation; [5]) | AGEs IC50 (AGEs formation; SCS extract and solvent fractions, tested 10–500 µg/mL, ND: no detection within test concentration) |
| --- | --- | --- | --- | --- | --- | --- | --- | --- |
|  |  |  |  | N=C(N)NN [AMG, aminoguanidine, reference compound] | 515 ± 33 µM |  | 54.8 ± 2.1 µg/mL | 54.8 ± 2.1 µg/mL |
|  |  |  |  | C[C@@H]1O[C@@H](Oc2c(-c3ccc(O)cc3)oc3cc(O)cc(O)c3c2=O)[C@H](O)[C@H](O)[C@H]1O [Afzelin (7), Kaempferol 3-O-α-L-rhamnoside] | 75.4 ± 3.8 µM |  |  |  |
| 34.5 ± 0.1 µM | 154 ± 4 µM |  |  | COc1cc(/C=C/C(=O)OC[C@H]2O[C@@](CO)(O[C@H]3O[C@H](CO)[C@@H](O)[C@H](O)[C@H]3O)[C@@H](OC(=O)/C=C/c3ccc(O)c(OC)c3)[C@@H]2O)ccc1O [Helonioside A (9)] | 227 ± 16 µM | > 1000 µM |  |  |
| 17 ± 3.6 µM | 45.1 ± 2.6 µM |  |  | CC1OC(Oc2c(O)cc(O)c3c(=O)cc(-c4ccc(O)cc4)oc23)C(O)C(O)C1O (stereo not drawn) [Isoscutellarein-8-O-rhamnoside (10), Isoscutellarein 8-O-rhamnoside] | 440 ± 17 µM | 101 ± 18 µM |  |  |
| 9.38 ± 1.46 µM | 609 ± 32 µM |  |  | CC1OC(Oc2cc(O)c3c(=O)c(OC4OC(CO)C(O)C(O)C4O)c(-c4ccc(O)cc4)oc3c2)C(O)C(O)C1O [Kaempferol 3-O-β-D-glucopyranosyl-7-O-α-L-rhamnopyranoside] | 193 ± 9 µM | > 1000 µM |  |  |
| 6.97 ± 0.56 µM |  | 1.30 ± 0.10 µg/mL | 1.30 ± 0.10 µg/mL | O=C(O)CC1(CC(=O)O)CCCC1 [TMG, 3,3′-tetramethyleneglutaric acid, reference compound] |  |  |  |  |
| 60.5 ± 16.8 µM | 5.97 ± 0.2 µM |  |  | Oc1ccc(/C=C/c2cc(O)cc(O)c2)cc1 [trans-Resveratrol (8), 3,5,4′-Trihydroxy-trans-stilbene] | 148 ± 14 µM | 61.2 ± 11.7 µM |  |  |

| SMILES | IC50 [2, 4] | IC50 [3] | Aldose Reductase IC50 [2, 5] | Aldose Reductase IC50 ([2]; SCS extract and solvent fractions, tested 10–100 µg/mL, ND: no detection within test concentration) | IC50 (AGEs formation) | IC50 [1] | AGEs IC50 (AGEs formation; [5]) | AGEs IC50 (AGEs formation; SCS extract and solvent fractions, tested 10–500 µg/mL, ND: no detection within test concentration) |
| --- | --- | --- | --- | --- | --- | --- | --- | --- |
| O=C(/C=C/c1ccc(O)c(O)c1)OC1CC(O)(C(=O)O)CC(O)C1O (stereo not drawn) [3-O-Caffeoylquinic acid (3), 3-O-Caffeoylquinic acid] | 0.6 ± 0.03 µM |  |  |  | 80.5 ± 5.5 µM | > 1000 µM |  |  |
| O=C(/C=C/c1ccc(O)c(O)c1)OC1C(O)CC(O)(C(=O)O)CC1O (stereo not drawn) [4-O-Caffeoylquinic acid (4), 4-O-Caffeoylquinic acid] |  | 736 ± 15 µM |  |  | 74.1 ± 3.1 µM | > 1000 µM |  |  |
| O=C(/C=C/c1ccc(O)c(O)c1)OC1CC(O)(C(=O)O)CC(O)C1O (stereo not drawn) [5-O-Caffeoylquinic acid (2), 5-O-Caffeoylquinic acid] | 87.5 ± 1.6 µM |  |  |  | 215 ± 18 µM | 474 ± 35 µM |  |  |
| O=C(O)c1ccc(O)c(O)c1 [Protocatechuic acid (1), Protocatechuic acid] |  | 176 ± 7 µM |  |  | 418 ± 10 µM | 22.9 ± 0.8 µM |  |  |
| C[C@@H]1O[C@@H](Oc2c(-c3ccc(O)c(O)c3)oc3cc(O)cc(O)c3c2=O)[C@H](O)[C@H](O)[C@H]1O [Quercitrin (6), Quercetin 3-O-α-L-rhamnoside] | 0.56 ± 0.14 µM | 135 ± 13 µM |  |  | 58 ± 2.5 µM | 96.7 ± 7 µM |  |  |

Reference: publication PMC6155388, “Chemical Constituents of Smilax china L. Stems and Their Inhibitory Activities against Glycation, Aldose Reductase, α-Glucosidase, and Lipase” (Molecules : A Journal of Synthetic Chemistry and Natural …, 2017)
